Measured values from patent publication US20090143410A1, “Isoxazolines for Controlling Invertebrate Pests” (priority 2005, published 2009).

Tested on: potato leafhopper (Empoasca fabae Harris)
Test: Test D: control of potato leafhopper on bean plant, contact and/or systemic
Format: in vivo
Conditions: sprayed at 50 ppm, 18 to 21 day old adults on Longio bean plant, 6 days, 19-21° C., 50-70% relative humidity, read-out: pest control: mortality
Experimental: Test compounds were formulated using a solution containing 10% acetone, 90% water and 300 ppm X-77™ Spreader Lo-Foam Formula non-ionic surfactant containing alkylarylpolyoxyethylene, free fatty acids, glycols and isopropanol (Loveland Industries, Inc. Greeley, Colo., USA). The formulated compounds were applied in 1 mL of liquid through a SUJ2 atomizer nozzle with ⅛ JJ custom body (Spraying Systems Co. Wheaton, Ill., USA) positioned 1.27 cm (0.5 inches) above the top of each test unit. All experimental compounds in these tests were sprayed at 250 ppm replicated three times. After spraying of the formulated test compound, each test unit was allowed to dry for 1 h and then a black, screened cap was placed on top. The test units were held for 6 days in a growth chamber at 25° C. and 70% relative humidity. Plant feeding damage was then visually assessed based on foliage consumed.
For evaluating control of potato leafhopper (Empoasca fabae Harris) through contact and/or systemic means, the test unit consisted of a small open container with a 5-6-day old Longio bean plant (primary leaves emerged) inside. White sand was added to the top of the soil and one of the primary leaves was excised prior to application. […] Each test unit was then visually assessed for insect mortality.

Row | Compound | mortality at 50 ppm [%]
1 | O=C(NCc1ccccn1)c1cnc(C2=NOC(c3cc(Cl)cc(Cl)c3)(C(F)(F)F)C2)nc1C(F)(F)F (centres unmarked) [Compound 7, 2-[5-(3,5-dichlorophenyl)-4,5-dihydro-5-(trifluoromethyl)-3-isoxazolyl]-N-(2-pyridinylmethyl)-4-(trifluoromethyl)-5-pyrimidinecarboxamide] | ≥ 80
2 | O=C(NCC(F)(F)F)c1cnc(C2=NOC(c3cc(Cl)cc(Cl)c3)(C(F)(F)F)C2)nc1C(F)(F)F (centres unmarked) [Compound 10, 2-[5-(3,5-dichlorophenyl)-4,5-dihydro-5-(trifluoromethyl)-3-isoxazolyl]-N-(2,2,2-trifluoroethyl)-4-(trifluoromethyl)-5-pyrimidinecarboxamide] | ≥ 80
